Values after ≈ are worked out from the molar mass of the structure shown. Non-standard residues stand in square brackets, D forms with d. Residues, ends and D or L forms follow the SMILES beside them. No end group written: not given here.
What was measured:
P. aeruginosa = experiment: microbe, parasite or virus in culture; assay type: cell-based, Pseudomonas aeruginosa; settings: for MIC: Pseudomonas aeruginosa
Procedure: 2.3 Antimicrobial Activities. The general antimicrobial activities of G10KHc, G10, and tobramycin against clinical isolates of P. aeruginosa were evaluated by minimum inhibitory concentration (MIC) assay as previously described (Eckert et al., 2006) and shown in Table 5. MICs are reported in μM, though for familiarity, 1 μM tobramycin=0.468 μg/mL. P. aeruginosa were grown to log phase and adjusted to ˜1×10^5 cfu/mL in Mueller-Hinton (MH) broth and added to 96-well plates. Two-fold serial dilutions of peptide were then added to bacteria and the plates incubated for 18-24 hours at 37° C. MIC was determined as the concentration of peptide present in the last clear well (no growth). […] In contrast to tobramycin, G10KHc was also effective against aminoglycoside and multiple-antibiotic resistant P. aeruginosa isolated from CF patients (AGR10, MR15). Additionally, as mucoid P. aeruginosa are often associated with reduced susceptibility to antimicrobial agents, we were encouraged to find that G10KHc was active against one such strain, PDO300.

P. aeruginosa ATCC 15692 [1] = experiment: Time-kill (killing kinetics), P. aeruginosa in LB with 30% mouse serum; assay type: cell-based, Pseudomonas aeruginosa; settings: 10 μM, 1 min to 2 h
Procedure: Time-Kill (killing kinetics) experiments were performed essentially as described previously (Eckert et al., 2006). Briefly, P. aeruginosa were grown to log phase and diluted to ˜1×10^5 cfu/mL (moderate density planktonic cultures) in LB with 30% mouse serum (MP Biomedicals) prior to the addition of 10 μM tobramycin, G10 or G10KHc to the cell suspensions. At each time point, 10 μL of the culture was removed and P. aeruginosa cells rescued by dilution in 500 μL LB and kept on ice until plating. Surviving cfu/mL were quantitated after plating on LB agar and incubating overnight at 37° C. under aerobic conditions.

P. aeruginosa ATCC 15692 [2] = experiment: Killing of exogenous P. aeruginosa in pooled CF sputum; assay type: cell-based, Pseudomonas aeruginosa
Procedure: 3.2 Activity and stability of G10KHc and G10KHc-D in sputum. Determination of peptide antimicrobial effects or activity in sputum was investigated in a similar manner to previous reports (Sajjan et al., 2001). To assay the activity of G10KHc and G10KHc-D against exogenous P. aeruginosa in sputum, collected sputum samples were diluted 1:10 in 10 mM PBS (PBS) and pooled (referred to as pooled sputum). In 100 μL pooled sputum, ATCC 15692 was added to a final concentration of ˜5×10^6 cfu/mL prior to 25 μM peptide addition.
In samples examining the effect of protease inhibitors on peptide activity, pooled sputum samples were pre-treated for 30 min with 1 mM protease inhibitor, either phenylmethylsulphonylfluoride (PMSF), beta-mercaptoethanol (BME), or ethylenediaminetetraacetic acid (EDTA), (all acquired from Sigma-Aldrich), followed by addition of 25 μM G10KHc and ATCC 15692 (˜5×10^6 cfu/mL).
Bacteria surviving peptide treatment were rescued by dilution (1:50) in growth media at 4 h and kept on ice before appropriate dilution and plating on LB agar supplemented with ampicillin (25 μg/mL). After overnight incubation at 37° C., colonies were counted and the surviving cfu/mL quantitated. 100 cfu/mL was considered as the countable limit for all plating procedures. […]

S. mutans biofilms = experiment: Binding of fluorescently labeled genome-derived peptides to S. mutans biofilms; set-up: species or system Streptococcus mutans; settings: fluorescent label
Excerpt: The targeting peptide 1903 was obtained by scanning the genomic sequence of S. mutans UA140. The predicted open reading frames (ORFs) of the publicly-available genome were examined and those ORFs that encoded for proteins under 50 amino acids were noted and re-examined after scanning the entire genome. A number of peptides predicted to be encoded by these ORFs were selected, synthesized with fluorescent labels, tested for binding to S. mutans biofilms.

P. aeruginosa biofilms = experiment: Rotating-disk biofilm reactor, P. aeruginosa biofilm killing; assay type: cell-based, Pseudomonas aeruginosa; settings: 100 μg/mL alone, 4 h or 24 h
Procedure: In this experiment, a rotating-disk biofilm reactor system was used for generating quantitative data on biofilm susceptibility to tobramycin, G10 and G10KHc. The system consisted of a reactor vessel containing 250 mL of diluted trypticase-soy broth (TSB) (1:100) medium. Reactors were inoculated with overnight cultures (1%, v/v). After static overnight growth in TSB, a flow of fresh medium was initiated (dilution rate, 0.7 h^−1). After 24 h in a flow of medium, the polycarbonate chips with attached biofilm bacteria were aseptically removed from the spinning disk and washed three times in ddH2O (pH 7.4) and incubated in 1 mL ddH2O. G10 (100 μg/mL), G10KHc (100 μg/mL), tobramycin (100 μg/mL), or a combination of the two was added as indicated. The chips were then incubated for 4 or 24 h in 24-well tissue culture plates (Falcon no. 353047; Becton Dickinson Labware, Franklin Lakes, N.J.). To estimate the number of viable P. aeruginosa remaining, the disks were placed in 1 mL PBS and the cells were dispersed using a tissue homogenizer (Brinkmann Instruments, Westbury, N.Y.) and the total cfu per chip was determined by serial dilution and plating on LB agar.

P. aeruginosa ATCC 15692 [3] = experiment: Time-kill against high-density planktonic P. aeruginosa; assay type: cell-based, Pseudomonas aeruginosa
Procedure: For evaluation of enhanced activity between G10KHc and tobramycin against high density planktonic cultures, ATCC 15692 were grown overnight were adjusted to ˜1×10^8 cfu/mL in ddH2O (pH 7.4) and exposed to 5 μM tobramycin, 5 μM G10KHc or a combination of both agents (a combination of 5 μM tobramycin (2.34 μg/mL) and 5 μM G10KHc or G10). 10 μL of the treated cultures was rescued by dilution after 24 h and the surviving cfu/mL plated on LB and counted after growth on LB agar.

P. aeruginosa ATCC 15692 [4] = experiment: Effect of rhDNase on STAMP killing in concentrated sputum; assay type: cell-based, Pseudomonas aeruginosa
Procedure: 3.4 Effect of rhDNase on STAMP activity in sputum. Recombinant human DNase, which is commonly used during treatment of CF to reduce sputum viscosity and promote airway clearing (Fuchs et al., 1994), was added to pooled, concentrated sputum samples to determine if G10KHc/PMSF and G10KHc-D activity could be improved during co-treatment under these conditions. To determine the effect of rhDNase (Genentech, San Francisco, Calif.) on STAMP killing ability, individual sputum samples were diluted 1:2 in 100 μg/mL rhDNase, briefly vortexed, and incubated at room temperature for 10 min. Treated samples were then pooled, followed by 1 mM PMSF addition, where appropriate, and incubation for 1 h. 25 μM G10KHc or G10KHc-D was then added with ˜5×10^6 cfu/mL ATCC 15692 and incubated 4 h. Survivors were then rescued and quantitated by plating as described above.

KNLRRIIRKGIHIIKKYG [novispirin G10, KNLRRIIRKGIHIIKKYG]
MIC range (P. aeruginosa): 10 to 60 µM
mean MIC (P. aeruginosa): 23.4 µM
killing kinetics (in words) (P. aeruginosa ATCC 15692 [1]): ineffective

O=S(=O)(F)Cc1ccccc1 [PMSF, phenylmethylsulphonylfluoride, reference compound]
effect of inhibitor alone on P. aeruginosa viability (P. aeruginosa ATCC 15692 [2]; 1 mM): only a small affect on P. aeruginosa viability

NIFEYFLE (synthetic targeting peptide 1903)
binding to S. mutans (S. mutans biofilms): showed the binding activity to S. mutans

NC[C@H]1O[C@H](O[C@H]2[C@H](O)[C@@H](O[C@H]3O[C@H](CO)[C@@H](O)[C@H](N)[C@H]3O)[C@H](N)C[C@@H]2N)[C@H](N)C[C@@H]1O [tobramycin]
killing effect against P. aeruginosa biofilms (P. aeruginosa biofilms): very limited killing effects
MIC (P. aeruginosa; ATCC9027, P. aeruginosa ATCC 9027): 2.12 µM (≈ 0.991 µg/mL)
MIC (P. aeruginosa; ATCC10145, P. aeruginosa ATCC 10145): 1.75 µM (≈ 0.818 µg/mL)
MIC (P. aeruginosa; ATCC15692, P. aeruginosa ATCC 15692): 3.05 µM (≈ 1.43 µg/mL)
MIC (P. aeruginosa; ATCC27583, P. aeruginosa ATCC 27583): 1.75 µM (≈ 0.818 µg/mL)
MIC (P. aeruginosa; P. aeruginosa AGR10 (aminoglycoside resistant, CF isolate)): 55 µM (≈ 25.7 µg/mL)
MIC (P. aeruginosa; P. aeruginosa MR15 (multiple-antibiotic resistant, CF isolate)): 55 µM (≈ 25.7 µg/mL)
MIC (P. aeruginosa; P. aeruginosa PAK): 2.12 µM (≈ 0.991 µg/mL)
MIC (P. aeruginosa; P. aeruginosa S40): 0.4 µM (≈ 0.187 µg/mL)
MIC (P. aeruginosa; P. aeruginosa S60): 0.4 µM (≈ 0.187 µg/mL)
MIC (P. aeruginosa; P. aeruginosa S100): 3.5 µM (≈ 1.64 µg/mL)
MIC (P. aeruginosa; PA14, P. aeruginosa PA14): 0.7 µM (≈ 0.327 µg/mL)
MIC (P. aeruginosa; PAO1, P. aeruginosa PAO1): 2.5 µM (≈ 1.17 µg/mL)
improvement in bactericidal effect over 5 μM G10 or G10KHc (P. aeruginosa ATCC 15692 [3]; 5 μM (2.34 μg/mL), 24 hours, high-density planktonic cells): 1-2 log10
surviving cfu/mL (P. aeruginosa ATCC 15692 [3]; 5 μM each agent, 24 h, 1×10^8 cfu/mL culture): 1×10^7 cfu/mL

CC[C@@H](C)[C@@H](NC(=O)CNC(=O)[C@@H](CCCCN)NC(=O)[C@@H](CCCNC(=N)N)NC(=O)[C@H](NC(=O)[C@H](NC(=O)[C@@H](CCCNC(=N)N)NC(=O)[C@@H](CCCNC(=N)N)NC(=O)[C@@H](CC(C)C)NC(=O)[C@@H](CC(N)=O)NC(=O)[C@@H](CCCCN)NC(=O)[C@@H](CO)NC(=O)CNC(=O)CNC(=O)[C@@H](CO)NC(=O)CNC(=O)CNC(=O)[C@@H](Cc1c[nH]cn1)NC(=O)[C@@H](CCCCN)NC(=O)[C@@H](CCCNC(=N)N)NC(=O)[C@@H](Cc1c[nH]cn1)NC(=O)[C@@H](CCCCN)NC(=O)[C@@H](CCCNC(=N)N)NC(=O)[C@@H](Cc1c[nH]cn1)NC(=O)[C@@H](CCCCN)NC(=O)[C@@H](CCCNC(=N)N)NC(=O)[C@@H](Cc1c[nH]cn1)NC(=O)[C@@H](CCCCN)NC(=O)[C@H](N)CCCCN)[C@H](C)CC)[C@H](C)CC)C(=O)N[C@H](Cc1c[nH]cn1)C(=O)N[C@@H](C(=O)N[C@@H](C(=O)N[C@H](CCCCN)C(=O)N[C@H](CCCCN)C(=O)N[C@H](Cc1ccc(O)cc1)C(=O)NCC(=O)O)[C@H](C)CC)[C@H](C)CC [Peptide G10KHc-D] (H-[dK][dK][dH][dR][dK][dH][dR][dK][dH][dR][dK][dH]GG[dS]GG[dS][dK][dN][dL][dR][dR][dI][dI][dR][dK]G[dI][dH][dI][dI][dK][dK][dY]G-OH; N-terminus and C-terminus assumed)
recovered cfu/mL as percent of untreated control (P. aeruginosa ATCC 15692 [4]; concentrated sputum not treated with rhDNase): ~30%
reduction of recovered P. aeruginosa compared to untreated samples (P. aeruginosa ATCC 15692 [2]; 25 μM, 4 h, no inhibitor): 3-4 log10

B1: rhDNase: Recombinant human DNase (Genentech), sputum mucolytic agent (protein, UniProt P24855 23-282, looked up)
Deoxyribonuclease-1: LKIAAFNIQTFGETKMSNATLVSYIVQILSRYDIALVQEVRDSHLTAVGKLLDNLNQDAPDTYHYVVSEPLGRNSYKERYLFVYRPDQVSAVDSYYYDDGCEPCGNDTFNREPAIVRFFSRFTEVREFAIVPLHAAPGDAVAEIDALYDVYLDVQEKWGLEDVMLMGDFNAGCSYVRPSQWSSIRLWTSPTFQWLIPDSADTTATPTHCAYDRIVVAGMLLRGAVVPDSALPFNFQAAYGLSDQLAQAISDHYPVEVMLK
effect of rhDNase treatment alone on P. aeruginosa (P. aeruginosa ATCC 15692 [4]; 100 μg/mL rhDNase): not affected
